Data set [1] relates to rat peritoneal exudation cells. The data set is described as follows: Inhibition effect on the liberation of histamine by compound 48/80. In kind it is cell-based. Conditions: for Liberation ratio of histamine (%): control 87.4, blank 9.3. Here is the method:
2. Inhibition effect of the medicine on the liberation of histamine by compound 48/80.
(1) Preparation of rat peritoneal exudation cells
10 ml of Locke's solution containing 0.1% of bovine serum albumin was injected into the abdominal cavity of a rat which had been killed by exsanguination. The rat was lightly massaged, then subjected to an abdominal section so that an abdominal solution was collected. The abdominal cavity was also washed with 5 ml of the same solution and the washing solution was collected and mixed with the above abdominal solution. The abdominal solution was centrifuged at 500 rpm for 5 minutes, then 5 ml of cool Locke's solution was added to the sediment. After the sediment had been washed, 3 ml of cool Locke's solution was again added thereto to form a solution of rat peritoneal exudation cells.
(2) Inhibition effect of medicine on the liberation of histamine by compound 48/80.
0.5 ml of Locke's solution and 1.0 ml of each of the solutions of isoliquiritigenin prepared to the concentration shown in Table 2 (the isoliquiritigenin was dissolved in a physiological saline solution containing 1% sodium bicarbonate, the resultant solution being diluted with Locke's solution) were added to 0.3 ml of the solution of rat peritoneal exudation cells obtained in (1) above and were incubated at 37° C. for 5 minutes. Then, 0.2 ml each of a Locke's solution of the compound 48/80 (1 mg/100 ml) was added to the solution and the mixture was incubated at 37° C. for 10 minutes. After the reaction was stopped by cooling, the obtained solution was centrifuged at 2,500 rpm for 10 minutes to be separated into 1.7 ml of supernatant and 0.3 ml of sediment. 0.1 ml of water and 0.2 ml of 100% trichloroacetic acid were added to the supernatant, and 1.5 ml of Locke's solution and the 100% trichloroacetic acid were added to the sediment which was then allowed to stand for 30 minutes at room temperature and was centrifuged at 3,000 rpm for 15 minutes. 0.35 ml of each of the supernatant and the supernatant of the sediment was taken and 1.65 ml of water and 0.4 ml of 1N sodium hydroxide were added in turn to each of the supernatants. 0.1 ml of 0.5% OPT (orthophthalaldehyde) methanol solution was added to each of the resultant solutions which were then allowed to react at room temperature for 4 minutes. After the reaction was stopped by the addition of 0.2 ml of 2M citric acid, the fluorescence of each of the reaction solutions was measured by a fluorophotometer. […]
The inhibition ratio of isoliquiritigenin for the liberation of histamine by the compound 48/80 is calculated from the following equations: [formula]

A further data set deals with ileum of the guinea pig. As to the kind of experiment: Schultz-Dale reaction (antigen-induced contraction of ileum of actively sensitized guinea pig). In kind it is cell-based, guinea pig (Hartley). As for the experimental part: The Schultz-Dale test and the inhibition effect of the compound of the present invention on the liberation of histamines by a compound 48/80 indicate that isoliquiritigenin has an antiallergic activity.
(1) Active sensitization of guinea pig by antigenic egg-white albumin (EWA)
After 1, 2 and 3 weeks, additional sensitization was conducted by injecting an equivalent mixed emulsion of a physiological saline solution of 4 mg/ml of EWA and complete Freund's adjuvant into the muscle at a ratio of 0.1 ml/100 g and the guinea pig was subjected to the Schultz-Dale reaction one week after the final sensitization.
(2) Schultz-Dale reaction
The ileum of the guinea pig which was actively sensitized in (1) above was extirpated and immediately soaked in Tyrode's solution to form a specimen of a length of 15 mm which was suspended at a tensile force of l.5 g in a Magnus' tube (10 ml) kept at a temperature of 37° C. Contraction of the ileum by 10^-6 mole of histamine. […] Then, after preincubation for about 2 minutes, 10 μg/ml of EWA was added to the Magnus' tube and the contraction of the ileum was recorded. As a control, the contraction of the ileum was measured by an operation which was similar to that of the above, except that the physiological saline solution of isoliquiritigenin containing 0.2% sodium bicarbonate was not applied. […]

The conditions of data set [2]: used in treatment of gastric ulcers; cited from earlier work.
The test system of the next data set is ddY male mice. The data set is described as follows: Acute toxicity (minimum lethal dose) in mice. In kind it is in vivo. Conditions: for minimum lethal dose: five 5-week-old ddY male mice. Here is the method:
Isoliquiritigenin was orally or intra-peritoneally administered to five 5-week-old ddY male mice. Consequently, it was determined that the minimum lethal dose was not less than 3000 mg/kg (oral administration) or not less than 1000 mg/kg (intra-peritoneal administration).

The nature of data set [3]: Side effects when administered for a long time. The class given is in vivo. Conditions: no test described.

Take `O=C(/C=C/c1ccc(O)cc1)c1ccc(O)cc1O` [Isoliquiritigenin, isoliquiritigenin]: the “Liberation ratio of histamine (%)” value in data set [1] (isoliquiritigenin 100 mg/ml) is 71.0%; in data set [1] (isoliquiritigenin 300 mg/ml), 32.7%; in data set [1] (isoliquiritigenin 1000 mg/ml), 9.2%. Further, the “liberation of histamine from mast cells by compound 48/80” value in data set [1] (result in words) is reported as “inhibits histamines from liberating mast cells by the compound 48/80”. In the data set on ileum of the guinea pig (Cavia porcellus, 10^-4 mole, EWA 10 μg/ml, versus control, read-out: Inhibition ratio (%)), the inhibition at 100 µM amounted to 90.2%. The “contraction of the ileum of the guinea pig by histamine and SRS-A” value in the data set on ileum of the guinea pig (result in words) was “inhibits the contraction of the ileum of the guinea pig by histamine and SRS-A”. The antiulcerous activity entry in data set [2] was “exhibits an antiulcerous activity”. Also, the results for the minimum lethal dose entry with ddY male mice (intra-peritoneal administration) and with ddY male mice (oral administration) were “not less than 1000 mg/kg” and “not less than 3000 mg/kg”, respectively. Further, the toxicity result with ddY male mice (result in words) was “very low toxicity”. The side effects entry in data set [3] was “few side effects”.

Source of the values: US4952564A, “Antiallergic agent” (Dainippon Ink and Chemicals, Inc., priority 1986, dated 1990).
